The target in experiment [1] is T1, Serine/threonine-protein kinase TAO2 (Homo sapiens) (UniProt Q9UL54).
T1 sequence (whole entry): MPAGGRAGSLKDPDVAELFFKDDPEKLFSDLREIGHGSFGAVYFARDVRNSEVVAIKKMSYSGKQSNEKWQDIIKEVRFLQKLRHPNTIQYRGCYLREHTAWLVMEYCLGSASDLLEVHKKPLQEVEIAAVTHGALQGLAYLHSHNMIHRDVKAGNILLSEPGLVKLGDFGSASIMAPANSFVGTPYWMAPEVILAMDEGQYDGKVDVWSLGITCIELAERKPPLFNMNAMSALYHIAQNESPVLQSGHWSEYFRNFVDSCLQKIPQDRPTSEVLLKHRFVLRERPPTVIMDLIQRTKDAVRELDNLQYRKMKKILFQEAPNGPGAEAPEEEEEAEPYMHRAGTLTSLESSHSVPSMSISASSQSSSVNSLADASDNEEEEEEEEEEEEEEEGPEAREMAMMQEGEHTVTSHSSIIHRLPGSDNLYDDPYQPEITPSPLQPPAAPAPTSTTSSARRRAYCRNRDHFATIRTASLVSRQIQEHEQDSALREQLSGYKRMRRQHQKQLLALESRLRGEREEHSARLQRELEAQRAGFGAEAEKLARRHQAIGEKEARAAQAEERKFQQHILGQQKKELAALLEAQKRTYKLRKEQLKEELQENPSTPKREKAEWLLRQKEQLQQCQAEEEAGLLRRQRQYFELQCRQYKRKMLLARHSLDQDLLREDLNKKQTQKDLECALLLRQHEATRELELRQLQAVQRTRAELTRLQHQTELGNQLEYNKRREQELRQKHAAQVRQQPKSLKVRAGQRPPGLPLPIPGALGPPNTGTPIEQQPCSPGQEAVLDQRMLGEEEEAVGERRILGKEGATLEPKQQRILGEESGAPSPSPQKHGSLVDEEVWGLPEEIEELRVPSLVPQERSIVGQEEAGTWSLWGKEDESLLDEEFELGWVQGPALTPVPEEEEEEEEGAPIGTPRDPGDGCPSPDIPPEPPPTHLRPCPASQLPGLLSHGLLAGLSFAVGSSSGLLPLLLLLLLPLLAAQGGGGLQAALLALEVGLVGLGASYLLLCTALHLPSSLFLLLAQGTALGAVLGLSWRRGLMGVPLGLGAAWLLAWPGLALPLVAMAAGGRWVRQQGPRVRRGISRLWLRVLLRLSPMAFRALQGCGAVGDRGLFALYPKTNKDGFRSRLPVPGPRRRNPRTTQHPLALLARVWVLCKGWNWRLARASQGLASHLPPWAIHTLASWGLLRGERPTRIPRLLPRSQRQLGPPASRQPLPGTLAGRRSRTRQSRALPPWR
The note with it: at 10 µM.

Experiment [2] has as its target MAP kinase-activated protein kinase 2 (Homo sapiens, UniProt P49137). Nature of the experiment: Selectivity interaction (Kinase screening (Nanosyn)) EUB0000604a MAPKAPK2.
For experiment [3], the target named is T2, Serine/threonine-protein kinase ULK2 (Homo sapiens) (UniProt Q8IYT8).
T2 sequence (whole entry): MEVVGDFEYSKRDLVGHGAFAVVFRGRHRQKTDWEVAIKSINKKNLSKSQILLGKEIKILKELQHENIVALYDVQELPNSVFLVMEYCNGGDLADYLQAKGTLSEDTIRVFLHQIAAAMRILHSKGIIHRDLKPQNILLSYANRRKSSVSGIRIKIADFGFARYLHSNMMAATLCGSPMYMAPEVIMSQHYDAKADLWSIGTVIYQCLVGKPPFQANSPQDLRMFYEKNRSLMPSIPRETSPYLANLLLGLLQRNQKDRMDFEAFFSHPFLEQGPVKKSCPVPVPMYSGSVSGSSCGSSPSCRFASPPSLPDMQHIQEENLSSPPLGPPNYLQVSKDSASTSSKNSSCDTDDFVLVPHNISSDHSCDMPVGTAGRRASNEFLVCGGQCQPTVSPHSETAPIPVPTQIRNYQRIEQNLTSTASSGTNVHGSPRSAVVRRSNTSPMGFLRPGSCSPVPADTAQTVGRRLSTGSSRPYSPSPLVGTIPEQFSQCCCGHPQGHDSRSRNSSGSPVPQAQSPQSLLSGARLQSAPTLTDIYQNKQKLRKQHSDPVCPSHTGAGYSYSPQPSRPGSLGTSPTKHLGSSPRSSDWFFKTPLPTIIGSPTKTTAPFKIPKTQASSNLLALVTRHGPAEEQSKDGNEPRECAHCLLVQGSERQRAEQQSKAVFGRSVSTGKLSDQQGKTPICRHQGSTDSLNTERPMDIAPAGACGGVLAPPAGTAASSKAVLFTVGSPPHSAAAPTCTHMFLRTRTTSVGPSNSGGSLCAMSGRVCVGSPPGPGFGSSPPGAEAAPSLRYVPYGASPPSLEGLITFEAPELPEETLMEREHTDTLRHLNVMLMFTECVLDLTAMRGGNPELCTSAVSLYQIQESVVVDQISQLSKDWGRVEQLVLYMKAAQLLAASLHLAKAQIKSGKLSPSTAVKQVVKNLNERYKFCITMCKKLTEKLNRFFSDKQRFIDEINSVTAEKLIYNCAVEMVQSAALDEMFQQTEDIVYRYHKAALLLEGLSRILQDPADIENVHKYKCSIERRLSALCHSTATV
Nature of the experiment: Selectivity interaction (KinomeScan (DiscoverX)) EUB0000666a ULK2. Particulars: at 10 µM.

The target in experiment [4] is T3, Beta-adrenergic receptor kinase 1 (Homo sapiens) (UniProt P25098).
T3 sequence (whole entry): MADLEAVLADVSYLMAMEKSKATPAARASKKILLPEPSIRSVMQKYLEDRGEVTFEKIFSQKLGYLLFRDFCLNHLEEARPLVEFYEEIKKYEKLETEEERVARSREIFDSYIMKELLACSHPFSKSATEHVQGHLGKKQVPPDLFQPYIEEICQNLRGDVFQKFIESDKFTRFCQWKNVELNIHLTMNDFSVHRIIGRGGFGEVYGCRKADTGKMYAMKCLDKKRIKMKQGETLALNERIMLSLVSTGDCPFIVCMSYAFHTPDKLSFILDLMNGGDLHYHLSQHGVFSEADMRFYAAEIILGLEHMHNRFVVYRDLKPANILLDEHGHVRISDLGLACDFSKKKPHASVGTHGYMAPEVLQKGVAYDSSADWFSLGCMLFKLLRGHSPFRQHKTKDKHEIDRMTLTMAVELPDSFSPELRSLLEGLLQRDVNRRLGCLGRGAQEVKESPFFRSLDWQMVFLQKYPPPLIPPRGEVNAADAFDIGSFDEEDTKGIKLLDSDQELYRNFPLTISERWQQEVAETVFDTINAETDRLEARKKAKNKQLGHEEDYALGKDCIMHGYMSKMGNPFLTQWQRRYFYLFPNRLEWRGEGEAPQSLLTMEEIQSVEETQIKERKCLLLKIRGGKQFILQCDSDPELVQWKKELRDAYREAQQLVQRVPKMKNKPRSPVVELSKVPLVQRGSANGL
Nature of the experiment: Selectivity interaction (Kinase panel (Z-LYTE Assay)) EUB0001632a ADRBK1. The note with it: at 10 µM.

The structures appear in SMILES notation.

Chain of MAP kinase-activated protein kinase 2 (P49137 whole entry, looked up): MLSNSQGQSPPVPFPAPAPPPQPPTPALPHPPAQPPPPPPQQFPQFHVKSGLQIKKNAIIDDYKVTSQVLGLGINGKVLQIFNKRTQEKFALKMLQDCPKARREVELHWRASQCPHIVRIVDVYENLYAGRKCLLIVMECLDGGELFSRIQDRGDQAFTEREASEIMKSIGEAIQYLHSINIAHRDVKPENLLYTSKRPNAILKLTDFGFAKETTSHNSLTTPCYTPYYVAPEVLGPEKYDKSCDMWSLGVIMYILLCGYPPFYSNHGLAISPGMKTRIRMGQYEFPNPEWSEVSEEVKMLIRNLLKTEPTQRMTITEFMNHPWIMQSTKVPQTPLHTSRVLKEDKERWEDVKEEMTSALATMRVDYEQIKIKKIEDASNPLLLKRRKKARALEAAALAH

In the case of `Cc1cc([C@@H](C)Nc2ccccc2C(=O)O)c2nc(N3CCOCC3)cc(=O)n2c1` [AZD-6482], in experiment [1], the % of control was determined as 94%.

With `Cc1cnc(Nc2ccc(F)cc2Cl)nc1-c1c[nH]c(C(=O)N[C@H](CO)c2cccc(Cl)c2)c1`, in experiment [2], the % of inhibition was 0%.

On to `O=C(NOC[C@H](O)CO)c1ccc(F)c(F)c1Nc1ccc(I)cc1F`, for which the % of control in experiment [3] was determined as 97%.

On to `Cn1cc(-n2cnc3c(NCc4nc5cc(Cl)c(Cl)cc5[nH]4)nc(N4CCOCC4)nc32)cn1`, for which the % of control in experiment [4] was -5.86%.

Source of the values: ChEMBL document CHEMBL5465560, “Selectivity Literature for EUbOPEN Chemogenomic Library” (2024).
